This is an account of results in US20240058459A1 (Ashvattha Therapeutics, Inc., priority 2019, published 2024).

Data set [1] relates to choroidal neovascular (CNV) lesions. Description: Localization and persistence in CNV lesions after systemic administration, laser-induced CNV mouse model. It counts as in vivo, C57BL/6 mice. As for the experimental part:
Two studies were conducted in C57BL/6 mice (n=5/group) administered intravenously 100 μL of D-ICG or vehicle control. In the first study, mice were administered D-ICG or vehicle control at 1, 3, 7, or 14 days post-laser and eyes were analyzed by optical coherence tomography (OCT) with ICG imaging at 4 or 24 hr post-dose. Flat-mounts of the sclera-choroid/retinal pigment epithelial (RPE) complexes were stained by fluorescently tagged isolectin and IBA-1.
The second study evaluated the localization and persistence of dendrimer conjugates in the CNV lesion. In the second study, mice were administered intravenously 100 μL of D-ICG and 100 μL of D-TRITC (1 hr after D-ICG) or vehicle control at 24 hr post-laser. Mice analyzed and sacrificed at 4, 7, 14, 21, and 28 days post-dose (n=5/group). For control group, free ICG (1.23 mg/mL), 100 μL, IV dosed 24 hr post-laser and mice analyzed and sacrificed at 2, 4, 7, and 14 days post-dose (n=5/group). Eyes analyzed by optical coherence tomography (OCT) with ICG imaging. Flat-mounts of the sclera-choroid/retinal pigment epithelial (RPE) complexes were stained by fluorescently tagged IBA-1 alone.

Data set [2] concerns choroidal neovascularization (CNV). Description: Laser-induced CNV mouse model, single IV dose. The conditions noted are these: single dose 24 hr after laser (IV; aflibercept IVT 40 μg); CNV area 7 days after laser.
Experimental: As a positive control group, a cohort of mice were administered aflibercept (EYLEA®) intravitreally (IVT; 1 μL, 40 μg). The CNV area was measured 7 days after laser treatment by both fluorescein angiography and flat-mounts of the sclera-choroid/RPE complexes stained with isolectin IB4.
The test system is the same in data set [3]. Description: Laser-induced CNV mouse model, single IP dose, duration of efficacy. Type of data set: in vivo, C57BL/6 mice. The conditions noted are these: single IP dose (aflibercept IVT).
In the next data set the target is VEGFR2 (Homo sapiens (Human), UniProt P35968). Description: In vitro kinase binding assay (VEGFR2). The procedure: All reactions performed in polypropylene 384-well plate. Each was a final volume of 0.02 ml.
The next data set is described as follows: Toxicokinetics in rats. Type of data set: in vivo, Sprague-Dawley rats. The conditions noted are these: D-4517 12 mg/kg daily IP, sunitinib 30 mg/kg daily oral.
For data set [4] the following is noted: rat, in vivo, 40.21 mg/kg.
For a further data set, the target named is TIE II (Homo sapiens (Human), UniProt Q02763). Description: TIE II inhibition, dissociation constant. It counts as binding.
TIE II, sequence (Q02763 23-1124): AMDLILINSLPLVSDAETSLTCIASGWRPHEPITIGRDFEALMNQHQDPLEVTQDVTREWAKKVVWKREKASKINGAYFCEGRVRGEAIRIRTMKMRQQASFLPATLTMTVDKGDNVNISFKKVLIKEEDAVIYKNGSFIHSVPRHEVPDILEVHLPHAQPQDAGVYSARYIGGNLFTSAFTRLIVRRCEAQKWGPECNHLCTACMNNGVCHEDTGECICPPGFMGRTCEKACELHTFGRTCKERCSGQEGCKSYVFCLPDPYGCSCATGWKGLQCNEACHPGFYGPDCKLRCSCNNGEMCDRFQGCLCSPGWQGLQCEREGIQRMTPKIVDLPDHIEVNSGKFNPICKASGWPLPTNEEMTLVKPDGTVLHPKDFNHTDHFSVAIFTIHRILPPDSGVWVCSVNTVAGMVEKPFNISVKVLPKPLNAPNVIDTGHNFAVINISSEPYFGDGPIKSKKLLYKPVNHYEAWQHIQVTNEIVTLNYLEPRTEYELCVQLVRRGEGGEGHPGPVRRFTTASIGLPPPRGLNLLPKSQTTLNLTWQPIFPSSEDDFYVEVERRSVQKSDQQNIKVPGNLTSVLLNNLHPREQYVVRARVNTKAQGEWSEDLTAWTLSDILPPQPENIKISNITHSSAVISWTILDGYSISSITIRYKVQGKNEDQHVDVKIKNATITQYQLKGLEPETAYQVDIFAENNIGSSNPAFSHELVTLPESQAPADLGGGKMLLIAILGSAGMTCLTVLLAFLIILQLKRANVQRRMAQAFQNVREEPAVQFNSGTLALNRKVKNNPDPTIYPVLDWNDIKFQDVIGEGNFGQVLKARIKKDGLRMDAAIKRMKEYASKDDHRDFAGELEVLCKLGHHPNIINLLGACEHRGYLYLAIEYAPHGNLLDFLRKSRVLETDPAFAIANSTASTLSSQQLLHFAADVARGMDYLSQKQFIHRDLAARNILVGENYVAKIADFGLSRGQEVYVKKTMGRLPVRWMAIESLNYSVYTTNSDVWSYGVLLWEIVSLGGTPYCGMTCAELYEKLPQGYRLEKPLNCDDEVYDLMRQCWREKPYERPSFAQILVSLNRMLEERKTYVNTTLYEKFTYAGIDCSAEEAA

VEGFR2, sequence (P35968 20-1356): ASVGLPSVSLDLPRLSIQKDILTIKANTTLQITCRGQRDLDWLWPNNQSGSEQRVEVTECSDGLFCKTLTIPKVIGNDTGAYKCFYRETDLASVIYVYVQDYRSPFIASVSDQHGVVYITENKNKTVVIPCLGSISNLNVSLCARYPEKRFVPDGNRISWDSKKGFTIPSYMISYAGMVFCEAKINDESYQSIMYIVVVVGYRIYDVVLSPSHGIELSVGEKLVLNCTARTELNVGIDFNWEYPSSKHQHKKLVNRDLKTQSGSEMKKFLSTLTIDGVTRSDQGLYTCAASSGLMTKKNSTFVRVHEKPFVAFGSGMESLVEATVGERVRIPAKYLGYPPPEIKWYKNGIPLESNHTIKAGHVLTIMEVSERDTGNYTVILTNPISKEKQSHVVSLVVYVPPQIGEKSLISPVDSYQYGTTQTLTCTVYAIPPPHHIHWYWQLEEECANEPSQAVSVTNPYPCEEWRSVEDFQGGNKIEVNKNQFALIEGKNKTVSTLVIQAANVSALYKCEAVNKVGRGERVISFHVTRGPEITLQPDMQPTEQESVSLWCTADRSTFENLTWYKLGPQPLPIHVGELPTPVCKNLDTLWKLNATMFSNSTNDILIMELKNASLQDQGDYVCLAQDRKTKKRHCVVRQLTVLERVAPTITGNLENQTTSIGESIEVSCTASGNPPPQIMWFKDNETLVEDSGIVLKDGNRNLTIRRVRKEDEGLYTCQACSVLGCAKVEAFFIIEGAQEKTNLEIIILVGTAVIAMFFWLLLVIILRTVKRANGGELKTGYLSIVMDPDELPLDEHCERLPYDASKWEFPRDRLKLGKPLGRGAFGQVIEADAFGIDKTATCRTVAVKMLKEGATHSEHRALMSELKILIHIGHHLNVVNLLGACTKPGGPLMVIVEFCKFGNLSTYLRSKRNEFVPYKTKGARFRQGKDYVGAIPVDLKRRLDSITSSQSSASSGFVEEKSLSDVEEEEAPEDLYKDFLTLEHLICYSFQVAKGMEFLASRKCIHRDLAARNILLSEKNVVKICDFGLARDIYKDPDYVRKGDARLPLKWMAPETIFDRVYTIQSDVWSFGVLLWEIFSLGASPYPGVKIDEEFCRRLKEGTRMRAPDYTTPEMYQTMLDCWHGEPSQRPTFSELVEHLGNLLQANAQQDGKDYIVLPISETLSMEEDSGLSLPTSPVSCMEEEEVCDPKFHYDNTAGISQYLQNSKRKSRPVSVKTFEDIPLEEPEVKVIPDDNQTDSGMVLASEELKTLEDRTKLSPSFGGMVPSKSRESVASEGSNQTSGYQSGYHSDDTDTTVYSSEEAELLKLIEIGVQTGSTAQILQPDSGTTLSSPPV
Experimental for Toxicokinetics in rats: Toxicokinetic data was collected in rats. […] Blood samples were collected, and plasma drug concentrations were determined. Noncompartmental toxicokinetic parameters were estimated.

Take `CC1(C)C(/C=C/C=C/C=C/C=C2\N(CCCCS(=O)(=O)[O-])c3ccc4ccccc4c3C2(C)C)=[N+](CCCCS(=O)(=O)[O-])c2ccc3ccccc3c21.[Na+]` [free ICG, indocyanine green]: the “time at which no longer present in the lesions” value in data set [1] (free ICG control groups, IV 24 hr post-laser) is 7-14 days post-laser. In data set [1] (systemic administration, within 24 hr after dosing), the “uptake/distribution in CNV lesions” value was “distributes non-specifically”.
For the molecule aflibercept, the “reduction in CNV area compared with vehicle control” value in data set [2] is “Statistically significant reductions in the CNV area”. The results for the CNV area result in data set [3] (day 7 post-treatment) and in data set [3] (day 14 post-treatment) were “Significant reduction in the CNV area” and “not sustained”, respectively.
With `Cc1[nH]c(/C=C2\C(=O)Nc3ccc(F)cc32)c(C)c1C(=O)NCCNC(=O)CCOCCOCCOCCN=[N+]=[N-]`, binding on VEGFR2 was characterised by a dissociation constant (Kd) of 1 nM.
On to `CCN(CC)CCNC(=O)c1c(C)[nH]c(/C=C2\C(=O)Nc3ccc(F)cc32)c1C` [free sunitinib, sunitinib], for which, in the data set “Toxicokinetics in rats”, the “AUC estimates, sunitinib compared to D-4517” value is recorded as “higher”.
As for `CCN(CC)CCNC(=O)c1c(C)[nH]c(/C=C2\C(=O)Nc3ccc(F)cc32)c1C` [Sunitinib Malate, reference compound], in data set [4], the overall tolerability entry was “various clinical and pathological changes in addition to mortality in female rats”.
Consider `COC(=O)Nc1nc2ccc(Oc3ccc(NC(=O)Nc4cc(C(F)(F)F)ccc4OCCCCN=[N+]=[N-])cc3)cc2[nH]1` [Structure V], for which the Kd – broadly, a measure of binding affinity in units of concentration – at TIE II is about 8.8 nM.
